Source: patent US11723899B2, “ALK2 inhibitors for the treatment of anemia” (Incyte Corporation, priority 2020, dated 2023)

Experiments:
[1] = Phase 1a single-dose, dose-escalation safety and tolerability study in healthy adult participants; format: in vivo, human; conditions: single oral dose 10, 25, 50, 100 and 175 mg
Description: A Phase 1a, double-blind, randomized, placebo-controlled, single-dose, dose-escalation and food-effect study is being conducted with 2-amino-N-(4-hydroxybicyclo-[2.2.2]octan-1-yl)-5-(4-((1R,5S)-3-(tetrahydro-2H-pyran-4-yl)-3-azabicyclo-[3.1.0]hexan-1-yl)phenyl)nicotinamide (“Compound A”) in order to assess the safety, tolerability, and pharmacokinetics (PK) of Compound A when administered orally as a single dose to healthy adult participants.
Compound A has been administered as a single dose at the dose levels of 10 mg, 25 mg, 50 mg, 100 mg, and 175 mg once to 9 healthy participants at each dose level.

[2] = 28-day repeat dose toxicity study in rats; format: in vivo
Description: (§1) Iron parameters and liver functional tests will be monitored clinically.
(§2) Potential increases in heart rate, skin/hair, and the gastrointestinal track will also be monitored clinically.

[3] = 28-day repeat dose toxicity study in dogs; format: in vivo
Description: as §1, §2

[4] = system: mouse adenine-induced chronic kidney disease model; test: Mouse adenine-induced chronic kidney disease (anemia) model; format: in vivo, male C57BL/6 mice
Description: The anemia associated with chronic kidney disease has been associated with the hepatic hormone hepcidin (Akchurin et al., Am. J. Physiol. Renal Physiol., 2016). Therefore, reduction of hepcidin levels through inhibition of ALK2 would be a useful therapeutic strategy to combat this aspect of the disease. To test this hypothesis, a murine model of chronic kidney disease that also leads to anemia was used. Orally administered adenine metabolizes to 2,8-dihydroxyadenine, which crystalizes in the tubules of the kidney. Build-up of this metabolite causes kidney injury (nephropathy), inflammation, and subsequently anemia. Mice (typically male C57B/6 mice age 6-10 weeks) are administered adenine (maximum dose of 50 mg/kg QD) by oral gavage for 28 days. During this time, mice are monitored weekly for changes in kidney function and hematology. Anemia onset is tracked by blood draws to measure complete blood count (CBC), which includes red blood cell count, hemoglobin levels, and hematocrit. Drops in these blood parameters would be indicative of anemia. […] Changes in kidney function are detectable within 10 days of adenine administration (Jia et al., BMC Nephrology, 2013; Rahman et al., PLoS One, 2018), and are monitored by analysis of plasma levels of creatinine and blood urea nitrogen (BUN) (Rahman et al., PLoS One, 2018). Increases in plasma creatinine, plasma BUN, and urine protein (>2 fold) are indicative of kidney injury. Body weights are also monitored weekly as a sign of overall fitness.
To investigate the ability of an ALK2 inhibitor to alleviate the anemia brought on by kidney injury, male C57BL/6 mice (Charles River Laboratories) were administered oral adenine (45 mg/kg QD) for 28 days. A cohort of mice were also administered vehicle solution to maintain a normal blood level baseline for comparison (n=10). Mice were monitored weekly for changes in blood parameters by CBC, and for changes in weight. Starting at 14 days post first administration of adenine, mice receiving adenine were dosed with either 30 mg/kg QD (n=8) or 100 mg/kg QD (n=9) Compound A, or vehicle control (n=10). Mice were dosed for 21 days, which includes […] after the cessation of adenine administration. Final analyses were performed one week after the last dose of Compound A, 42 days after adenine administration began. Shown in FIG. 1 are results from this experiment.
A study was performed to investigate the effects of starting the dosing of Compound A later in kidney disease progression at the point when hepcidin levels increase, at […]. Male C57BL/6 mice were administered oral adenine (45 mg/kg QD) for 28 days. A cohort of mice were also administered vehicle solution to maintain a normal blood level baseline for comparison (n=8). Mice were monitored weekly for changes in blood parameters by CBC, and for changes in weight. The mice receiving adenine were dosed with either 30 mg/kg QD (n=8) or 100 mg/kg QD (n=8) Compound A, or vehicle control (n=8). Compound A dosing began at either 14 or 21 days after adenine administration began and continued for 21 days, followed by one more week until blood analysis. The dosing that began on day 14 was termed “prophylactic” as it began before the increase in hepcidin occurs. Dosing that began on day 21 was termed “concomitant” as the dosing coincided with hepcidin level increase. […] Overall, Compound A was able to improve the anemia arising in this model. […]

**Q.** For Nc1ncc(-c2ccc([C@@]34C[C@@H]3CN(C3CCOCC3)C4)cc2)cc1C(=O)NC12CCC(O)(CC1)CC2 [Compound A, 2-amino-N-(4-hydroxybicyclo-[2.2.2]octan-1-yl)-5-(4-((1R,5S)-3-(tetrahydro-2H-pyran-4-yl)-3-azabicyclo-[3.1.0]hexan-1-yl)phenyl)nicotinamide], which “severe adverse events (SAEs)” value ([1]; 9 healthy participants per dose level) is on record?
**A.** No severe adverse events (SAEs) have been observed

**Q.** What about the “severity of adverse events (AEs)” value ([1]; all dose levels) of the same molecule?
**A.** mild and self-limiting

**Q.** What about the “findings at the no observed adverse effect level (NOAEL)” value ([2]; at NOAEL) of the same molecule?
**A.** slight increases in iron staining in the liver with no associated increase in liver function tests (LFTs) or microscopic findings in the liver

**Q.** What about the “liver findings at higher doses” value ([2]; doses above NOAEL) of the same molecule?
**A.** increases in serum alanine aminotransferase (ALT) and aspartate aminotransferase (AST) and microscopic findings in the liver

**Q.** And the “additional adverse findings considered related to inhibition of ALK3” value ([2]; higher doses, species not given)?
**A.** mucosal hypertrophy and hyperplasia in the gastrointestinal tract with associated changes in the mesenteric lymph nodes, anagen phase arrest of hair follicles, and further alterations in iron metabolism

**Q.** What about the “findings at the no observed adverse effect level (NOAEL)” value ([3]; 28-day repeat dose, at NOAEL) of the same molecule?
**A.** slight increases in iron staining in the liver with no associated increase in liver function tests (LFTs) or microscopic findings in the liver

**Q.** And the “liver findings at higher doses” value ([3]; 28-day repeat dose, doses above NOAEL)?
**A.** increases in serum alanine aminotransferase (ALT) and aspartate aminotransferase (AST) and microscopic findings in the liver

**Q.** What about the “additional adverse findings considered related to inhibition of ALK3” value ([3]; 28-day repeat dose, higher doses) of the same molecule?
**A.** mucosal hypertrophy and hyperplasia in the gastrointestinal tract with associated changes in the mesenteric lymph nodes, anagen phase arrest of hair follicles, and further alterations in iron metabolism

**Q.** And the heart rate ([3]; higher doses)?
**A.** increased heart rates

**Q.** What about the “hemoglobin levels relative to normal range” value ([4]; 100 mg/kg QD, prophylactic dosing (from day 14), FIG. 2) of the same molecule?
**A.** returned hemoglobin levels that are within the normal range

**Q.** What about the body weights ([4]; 30 or 100 mg/kg QD for 21 days from day 14, vs adenine without Compound A, FIG. 1 right) of the same molecule?
**A.** increased weights

**Q.** And the “hemoglobin levels, prophylactic dosing” value ([4]; 30 or 100 mg/kg QD for 21 days starting day 14 of adenine, FIG. 2 left)?
**A.** dose dependent increase in hemoglobin levels

**Q.** What about the “hemoglobin levels, concomitant dosing” value ([4]; 30 or 100 mg/kg QD for 21 days starting day 21 of adenine, FIG. 2 right) of the same molecule?
**A.** significant increases in hemoglobin levels that were dose dependent

**Q.** And the “hemoglobin (HGB) levels” value ([4]; day 42, 30 or 100 mg/kg QD for 21 days starting 14 days after first adenine (45 mg/kg QD, 28 days), vs adenine + vehicle, FIG. 1 left)?
**A.** dose-dependently improved hemoglobin (HGB) levels
